Reference: article PMC11823594, “Durlobactam in combination with β-lactams to combat Mycobacterium abscessus” (Antimicrobial Agents and Chemotherapy, 2024)
Converted amounts (≈) assume the structure as drawn. Where two headings read alike, the source gives them in different places.

What was measured:
[1] = Predicted average unbound steady-state plasma concentration (fCss,avg) at clinically relevant doses; set-up: species or system human
Mab ATCC 19977 strain = assay: MIC testing (CLSI, Middlebrook 7H9 broth); assay type: cell-based, Mycobacterium abscessus; details: for MIC: Mycobacteroides abscessus, read-out: MIC, alone
LDT2 [2] = target: T1, LDT2 (Mycobacterium abscessus, UniProt B1MMQ4); assay: Steady-state kinetics with nitrocefin (Ki,app); assay type: biochemical; details: for Ki: nitrocefin at 5 × Km, read-out: Ki,app LDT2 (converted)
Experimental: (§1) Steady-state kinetic studies were conducted using purified LDTs and PBPs (LDT1-5, PBP B, PBP-lipo, and DDC) as previously described ([20]). The assays were performed using a BioTek Synergy2 multimode reader in conjunction with Gen5 analysis software. Increasing concentrations of NCF (Δε482 = 17,400 M^⁻¹ cm^⁻¹) were used, while fixed concentrations of the LDTs and PBPs were monitored for changes in absorbance at 482 nm over a time period of 0 to 10 min. To determine reaction velocities, a 0.25 cm path length was employed. The steady-state kinetic parameters (Vmax, kcat, and Km) were obtained by fitting the data to the Henri-Michaelis-Menten equation using a nonlinear least-squares fit in Origin 8.1 software (OriginLab, Northampton, MA). The reaction rate (v) at a given substrate concentration ([S]) was calculated according to the following equations: […]
(§2) To determine the apparent inhibition constants (Ki,app) for β-lactams and BLIs, the following experimental condition was employed: NCF as a substrate at a concentration of 5 × Km, LDT/ PBP enzymes with fixed concentration, and β-lactams and BLIs with various concentrations. Changes in absorbance at 482 nm were measured over a period of 0–30 min for each concentration of β-lactams and BLIs. Data were linearized using a Dixon plot, plotting the inverse changes in absorbance (1/ΔA) against the concentrations of β-lactams and BLIs. The observed Ki,app was determined directly from the Dixon plot, and these values were corrected for substrate concentration and affinity for the LDT using the following equation:
(§3) Ki,app=observed Ki,app/1+[NCF]/Km NCF

LDT4 = LDT4 (Mycobacterium abscessus, UniProt B1MKW1); assay: Steady-state kinetics with nitrocefin (Ki,app); assay type: biochemical; details: in parentheses in Table 3
Experimental: as §1, §2, §3

LDT1 = LDT1 (Mycobacterium abscessus, UniProt B1MDC1); assay: Steady-state kinetics with nitrocefin (Ki,app); assay type: biochemical; details: for Ki: nitrocefin at 5 × Km, read-out: Ki,app LDT1 (converted)
Experimental: as §1, §2, §3

PBP-lipo [3] = target: T2, PBP-lipo (Mycobacteroides abscessus, UniProt B1MDC3); assay: Steady-state kinetics with nitrocefin (Ki,app); assay type: biochemical
T2 construct: made in house; host or cells: Escherichia coli BL21 (DE3)
Experimental: as §1, §2, §3

PBP-lipo [4] = target: T2, PBP-lipo; assay: Bocillin-FL binding assay; details: 2 h incubation, 1:10 molar ratio
Experimental: To analyze the binding of PBP-lipo with β-lactams or BLIs, purified PBP-lipo (4 µg) was incubated with β-lactams or BLIs at a 1:10 molar ratio in a buffer containing 10 mM sodium phosphate (pH 7.4) and 150 mM NaCl. The incubation was carried out for 2 h at room temperature. After the initial incubation, 1 µM Bocillin FL was added to the reaction mixture. The incubation was continued for an additional 3–4 h at 37°C. After incubation, the samples were boiled to denature the proteins. The samples were then subjected to SDS-PAGE. The PBP-lipo:Bocillin complexes were visualized by fluorescence analysis at a wavelength of 488 nm using an Azure 300 gel imaging system. The intensity of the PBP-lipo:Bocillin complex bands was analyzed using GelAnalyzer software. The intensity of the band for PBP-lipo alone (without β-lactams) was set to 1 as the highest intensity. The intensity of each band for PBP-lipo incubated with β-lactams was then normalized by dividing by the intensity of the band for PBP-lipo alone.

DDC = DDC (Mycobacteroides abscessus, UniProt B1MDJ1); assay: Steady-state kinetics with nitrocefin (Ki,app); assay type: biochemical; details: in parentheses in Table 3;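 note: Parenthesised value is the fCss,avg to Ki,app ratio where above 1 means target likely hit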
Experimental: as §1, with “Increasing concentrations of NCF (Δε482 = 17,400 M^⁻¹ cm^⁻¹) were used, while fixed concentrations of the LDTs and PBPs were monitored for changes in absorbance at 482 nm over a time period of 0 to 10 min.” left out
(§4) Changes in absorbance at 482 nm were measured over a period of 0–30 min for each concentration of β-lactams and BLIs. Data were linearized using a Dixon plot, plotting the inverse changes in absorbance (1/ΔA) against the concentrations of β-lactams and BLIs. The observed Ki,app was determined directly from the Dixon plot, and these values were corrected for substrate concentration and affinity for the LDT using the following equation:
as §3

PBP B = PBP B (Mycobacterium abscessus, UniProt B1MP31); assay: Steady-state kinetics with nitrocefin (Ki,app); assay type: biochemical;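 for Ratio of fCss,avg to Ki,app, PBP B: Parenthesised value is the fCss,avg to Ki,app ratio where above 1 means target likely hit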
Experimental: as §1, with “Increasing concentrations of NCF (Δε482 = 17,400 M^⁻¹ cm^⁻¹) were used, while fixed concentrations of the LDTs and PBPs were monitored for changes in absorbance at 482 nm over a time period of 0 to 10 min.” left out
as §4, §3

LDT5 = LDT5 (Mycobacterium abscessus, UniProt B1MM58); assay: Steady-state kinetics with nitrocefin (Ki,app); assay type: biochemical; details: in parentheses in Table 3
Experimental: as §1, with “Increasing concentrations of NCF (Δε482 = 17,400 M^⁻¹ cm^⁻¹) were used, while fixed concentrations of the LDTs and PBPs were monitored for changes in absorbance at 482 nm over a time period of 0 to 10 min.” left out
as §4, §3

LDT2 [5] = target: T1, LDT2; assay: Circular dichroism spectroscopy; assay type: binding; details: 5 µM LDT2, 10 µM β-lactam, 2 h, 25°C
Experimental: The circular dichroism spectra of LDT2 (5 µM in PBS buffer) were recorded on a circular dichroism spectrometer with a 2 mm path length, both in the absence and presence of 10 µM imipenem, ceftaroline, sulopenem, and cefuroxime at 25°C. To ensure the detection of conformational changes, LDT2 and the β-lactams were incubated at room temperature for 2 h. The contribution of each β-lactam alone was subtracted in each case.

LDT3 = LDT3 (Mycobacterium abscessus, UniProt B1MHQ4); assay: Mass spectrometry of covalent adduct formation; assay type: binding; details: protein:drug 1:20, 2 h; mass accuracy ±5 Da; (−) = no change
Experimental: Truncated sequences of LDT1-5, DDC, PBP B, and PBP-lipo (Δ1–41) were generated by Celtek Biosciences and cloned into the pET28(a) + vector with a tobacco etch virus (TEV) protease cleavage site before the start codon. Clones were transformed into Escherichia coli BL21 (DE3) and grown to an OD600 of 0.6–0.8. Protein expression was induced with 0.25 mM isopropyl β-d-1-thiogalactopyranoside (IPTG) and incubated for 18 h at 18°C. Cell pellets were collected and stored at −20°C overnight, then resuspended in a buffer containing 50 mM Tris (pH 8.0), 400 mM sodium chloride, and 1 mM Tris (2-carboxyethyl) phosphine hydrochloride (TCEP), followed by sonication and centrifugation. The supernatant was purified using a His Prep FF 16/10 column (GE Healthcare) and eluted with 500 mM imidazole. Eluted protein was dialyzed overnight at 4°C in a buffer with 50 mM Tris (pH 8.0), 150 mM sodium chloride, and 0.5 mM TCEP in the presence of His-tagged TEV protease. To remove the His tag, the mixture was passed over the His Prep FF 16/10 column again.
The purified proteins listed above were incubated at room temperature with β-lactams or BLIs at a molar ratio of 1:20 for 2 h. The reactions were then quenched with acetonitrile and diluted to 1 mL with 0.1% formic acid in water. Samples were analyzed using a quadrupole time-of-flight (Q-TOF) Waters Synapt-G2-Si electrospray ionization mass spectrometer (ESI-MS) and a Waters Acquity H class ultra-performance liquid chromatography (UPLC) system, equipped with a BEH C18 1.7 µm column (2.1 × 50 mm). The MS was tuned with the following settings: capillary voltage set at 3 kV, sampling cone at 35 V, source offset at 35, source temperature of 100°C, desolvation temperature of 500°C, cone gas flow rate at 100 L/h, desolvation gas flow rate at 800 L/h, and nebulizer set at 6.0. The mobile phases consisted of 0.1% formic acid in water and 0.1% formic acid in 100% acetonitrile, with gradient elution from 10% to 90% of […] over 11 min. The system’s mass accuracy was ±5 Da.

BlaMab = BlaMab (Mycobacterium abscessus, UniProt B1MCI3); assay: Ki,app for the β-lactamase; assay type: biochemical
Mab ATCC 19977 = assay: Static drug-concentration time-kill (SCTK) assay with CART analysis; assay type: cell-based, Mycobacterium abscessus; details: clinically achievable concentrations, over 10 days; AVI 4 mg/L; DUR 12 mg/L + SUL 7 mg/L
[6] = tested on: Mycobacterium abscessus ATCC 19977 strain; assay: Morphological changes by flow cytometry and confocal microscopy; assay type: cell-based; details: clinically relevant unbound concentrations (fCss,ave), 24 h
Experimental: Flow cytometry was employed to evaluate morphological changes in individual bacterial cells following PBP-lipo inactivation after 24 h of β-lactam treatment. The bacterial cells were stained using the BacLight kit L7012 (Thermo Fisher Scientific, Waltham, MA), containing SYTO 9 and propidium iodide (PI). Analysis was performed using a CytoFLEX flow cytometer (Beckman Coulter, CA), with data processed using CytExpert software.
Bacterial morphological changes resulting from PBP-lipo inactivation were investigated using an ImageXpress Micro Confocal Microscope (Molecular Devices, CA). The staining procedures applied to the samples mirrored those used for flow cytometry. Stained bacterial cells were placed in optically clear flat-bottom 96-well plates, and observations were conducted at 60× magnification. Cell length measurements were obtained through automated image analysis using MetaXpress 6 software.

[7] = ATCC19977, Mab ATCC 19977, no BLI added, 30°C, 48 h

T2 sequence (B1MDC3 entry or part of it): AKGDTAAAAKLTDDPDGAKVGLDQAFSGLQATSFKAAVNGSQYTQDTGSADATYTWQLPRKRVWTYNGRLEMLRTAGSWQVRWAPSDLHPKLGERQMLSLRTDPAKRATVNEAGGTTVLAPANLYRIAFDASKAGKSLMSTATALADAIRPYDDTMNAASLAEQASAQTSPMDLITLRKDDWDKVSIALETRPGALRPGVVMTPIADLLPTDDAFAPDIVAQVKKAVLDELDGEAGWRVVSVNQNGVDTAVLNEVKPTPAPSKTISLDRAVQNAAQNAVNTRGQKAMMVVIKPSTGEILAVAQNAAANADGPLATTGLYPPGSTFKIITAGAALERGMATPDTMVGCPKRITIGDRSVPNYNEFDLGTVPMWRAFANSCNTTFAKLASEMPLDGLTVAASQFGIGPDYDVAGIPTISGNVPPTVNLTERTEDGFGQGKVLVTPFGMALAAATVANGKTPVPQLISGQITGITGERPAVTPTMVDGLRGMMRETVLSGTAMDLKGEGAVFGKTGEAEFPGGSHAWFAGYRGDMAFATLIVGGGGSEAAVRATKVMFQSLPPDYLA
T1 sequence (B1MMQ4 entry or part of it): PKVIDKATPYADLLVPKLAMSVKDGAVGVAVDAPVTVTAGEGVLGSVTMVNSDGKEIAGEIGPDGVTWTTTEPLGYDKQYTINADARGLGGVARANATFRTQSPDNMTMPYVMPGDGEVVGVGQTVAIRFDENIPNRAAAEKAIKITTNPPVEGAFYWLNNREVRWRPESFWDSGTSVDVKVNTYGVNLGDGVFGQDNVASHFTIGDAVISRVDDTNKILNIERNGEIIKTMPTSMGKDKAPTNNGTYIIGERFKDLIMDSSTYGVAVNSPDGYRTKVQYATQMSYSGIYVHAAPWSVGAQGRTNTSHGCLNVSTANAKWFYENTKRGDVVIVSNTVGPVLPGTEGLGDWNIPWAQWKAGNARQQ
PBP B, sequence (B1MP31 entry or part of it): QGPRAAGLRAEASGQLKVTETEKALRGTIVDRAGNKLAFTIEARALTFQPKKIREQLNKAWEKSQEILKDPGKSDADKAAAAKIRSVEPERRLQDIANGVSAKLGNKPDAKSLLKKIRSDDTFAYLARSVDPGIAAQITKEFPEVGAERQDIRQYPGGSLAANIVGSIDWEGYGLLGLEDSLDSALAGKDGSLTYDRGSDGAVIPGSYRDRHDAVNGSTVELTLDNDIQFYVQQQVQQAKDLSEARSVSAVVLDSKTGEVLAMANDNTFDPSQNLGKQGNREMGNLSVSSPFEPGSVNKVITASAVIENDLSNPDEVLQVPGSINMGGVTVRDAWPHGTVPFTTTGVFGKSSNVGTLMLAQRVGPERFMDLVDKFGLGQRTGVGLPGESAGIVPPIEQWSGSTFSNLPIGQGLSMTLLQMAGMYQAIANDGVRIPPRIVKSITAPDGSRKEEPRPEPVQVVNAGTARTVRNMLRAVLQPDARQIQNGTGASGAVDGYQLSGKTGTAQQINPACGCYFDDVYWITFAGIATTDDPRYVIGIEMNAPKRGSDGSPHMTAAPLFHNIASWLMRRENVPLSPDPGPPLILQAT
LDT1, sequence (B1MDC1 entry or part of it): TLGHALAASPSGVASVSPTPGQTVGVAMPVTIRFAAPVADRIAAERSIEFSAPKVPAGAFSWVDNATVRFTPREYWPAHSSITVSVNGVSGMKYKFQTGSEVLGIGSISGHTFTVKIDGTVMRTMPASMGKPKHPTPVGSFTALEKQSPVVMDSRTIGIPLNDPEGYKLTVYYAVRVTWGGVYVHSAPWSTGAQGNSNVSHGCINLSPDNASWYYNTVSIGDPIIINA
LDT4, sequence (B1MKW1 entry or part of it): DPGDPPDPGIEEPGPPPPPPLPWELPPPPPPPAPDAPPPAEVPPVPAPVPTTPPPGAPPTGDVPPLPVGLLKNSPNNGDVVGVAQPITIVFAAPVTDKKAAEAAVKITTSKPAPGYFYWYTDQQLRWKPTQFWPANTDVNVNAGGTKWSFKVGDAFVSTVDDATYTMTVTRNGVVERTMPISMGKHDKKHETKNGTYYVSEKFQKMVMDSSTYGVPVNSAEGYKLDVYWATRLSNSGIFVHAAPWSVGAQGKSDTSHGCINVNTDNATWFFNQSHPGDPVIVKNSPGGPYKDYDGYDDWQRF
LDT5, sequence (B1MM58 entry or part of it): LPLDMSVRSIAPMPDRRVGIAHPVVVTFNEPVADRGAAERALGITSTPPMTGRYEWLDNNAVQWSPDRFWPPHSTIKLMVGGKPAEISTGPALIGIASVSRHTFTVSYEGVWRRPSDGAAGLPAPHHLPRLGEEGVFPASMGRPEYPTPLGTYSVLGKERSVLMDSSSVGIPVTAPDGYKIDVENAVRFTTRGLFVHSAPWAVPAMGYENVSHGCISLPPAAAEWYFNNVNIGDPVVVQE
BlaMab, sequence (B1MCI3 entry or part of it): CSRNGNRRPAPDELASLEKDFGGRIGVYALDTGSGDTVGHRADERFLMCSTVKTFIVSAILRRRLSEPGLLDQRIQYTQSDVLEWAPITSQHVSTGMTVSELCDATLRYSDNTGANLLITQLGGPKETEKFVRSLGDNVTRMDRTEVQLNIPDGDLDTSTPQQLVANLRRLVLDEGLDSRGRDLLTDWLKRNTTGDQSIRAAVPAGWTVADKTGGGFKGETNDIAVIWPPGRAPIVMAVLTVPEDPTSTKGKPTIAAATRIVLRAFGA
DDC, sequence (B1MDJ1 entry or part of it): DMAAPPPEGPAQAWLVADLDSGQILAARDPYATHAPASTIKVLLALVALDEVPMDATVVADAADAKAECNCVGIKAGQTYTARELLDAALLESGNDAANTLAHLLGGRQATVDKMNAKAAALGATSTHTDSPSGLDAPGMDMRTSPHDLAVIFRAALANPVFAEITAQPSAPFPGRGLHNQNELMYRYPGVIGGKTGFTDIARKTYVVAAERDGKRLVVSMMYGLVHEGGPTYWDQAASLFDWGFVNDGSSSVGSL
LDT3, sequence (B1MHQ4 entry or part of it): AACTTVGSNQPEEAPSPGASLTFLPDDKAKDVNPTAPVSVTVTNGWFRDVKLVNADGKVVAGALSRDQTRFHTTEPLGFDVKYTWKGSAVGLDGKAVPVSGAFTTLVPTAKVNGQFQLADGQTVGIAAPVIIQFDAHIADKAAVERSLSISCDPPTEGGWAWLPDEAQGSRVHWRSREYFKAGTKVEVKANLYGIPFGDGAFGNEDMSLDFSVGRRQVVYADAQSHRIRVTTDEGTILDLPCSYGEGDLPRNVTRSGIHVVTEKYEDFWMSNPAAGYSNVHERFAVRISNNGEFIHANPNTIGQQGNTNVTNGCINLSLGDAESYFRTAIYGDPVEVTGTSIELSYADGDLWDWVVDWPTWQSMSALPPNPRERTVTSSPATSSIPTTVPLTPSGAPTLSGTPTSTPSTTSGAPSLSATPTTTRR

In the case of CC[C@H]1OC(=O)[C@H](C)[C@@H](O[C@H]2C[C@@](C)(OC)[C@@H](O)[C@H](C)O2)[C@H](C)[C@@H](O[C@@H]2O[C@H](C)C[C@H](N(C)C)[C@H]2O)[C@](C)(OC)C[C@@H](C)C(=O)[C@H](C)[C@@H](O)[C@]1(C)O [Clarithromycin, clarithromycin], the “Steady-state average unbound concentration” value ([1]; daily dose of 1000 mg) is reported as 0.3 mg/L and the MIC (Mab ATCC 19977 strain; [7]) is reported as 8 µg/mL (≈ 10.7 µM).
For CCO/N=C(\C(=O)N[C@@H]1C(=O)N2C(C(=O)[O-])=C(Sc3nc(-c4cc[n+](C)cc4)cs3)CS[C@H]12)c1nsc(N)n1 [Ceftaroline, ceftaroline], the “Ratio of fCss,avg to Ki,app, LDT2” value (LDT2 [2]; in parentheses in Table 3) was 10, the Ki (LDT2 [2]) was 1.16 µM and the “Ratio of fCss,avg to Ki,app, LDT4” value (LDT4) was 0.1. For the same compound, the “Ratio of fCss,avg to Ki,app, LDT1” value (LDT1; in parentheses in Table 3) was 14, the Ki (LDT1) was 0.827 µM and the Ki (PBP-lipo [3]) was 23.2 µM. For the same compound, the “Ratio of fCss,avg to Ki,app, PBP-lipo” value (PBP-lipo [3]; in parentheses in Table 3) was 0.5, the “Binding to PBP-lipo (Bocillin-FL competition)” value (PBP-lipo [4]) was “demonstrated binding to PBP-lipo” and the “Ratio of fCss,avg to Ki,app, DDC” value (DDC) was 0.3. For the same compound, the Ki (PBP B) was 2.32 µM, the “Ratio of fCss,avg to Ki,app, PBP B” value (PBP B; in parentheses in Table 3) was 5 and the “Ratio of fCss,avg to Ki,app, LDT5” value (LDT5) was 0.1. For the same compound, the “Conformational change of LDT2 (CD spectrum)” value (LDT2 [5]) was “altered its secondary structure”, the “Observed MW (+ change in mw), LDT3 (44,795)” value (LDT3) was 44,794 (−) Da and the “fCss,avg” value ([1]; median unbound average steady-state plasma concentration, continuous infusion, daily dose DUR 4,000, AVI 1,500, IPM 4,000, CFT 1,800, AMX 1,500, SULO 1,000, CXM 1,500, SUL 4,000, TBP 1,800 mg) was 7 mg/L. For the same compound, the MIC (Mab ATCC 19977 strain; ATCC19977, 48 h) was 16 µg/mL (≈ 26.5 µM), the “MIC, + AVI (4 mg/L)” value (Mab ATCC 19977 strain; fixed avibactam 4 mg/L) was 1 to 2 µg/mL and the “MIC, + DUR + SUL (1 mg/L)” value (Mab ATCC 19977 strain; fixed durlobactam 1 mg/L + sulbactam 1 mg/L) was 2 µg/mL. For the same compound, the Ki (BlaMab) was 681 µM.
CO[C@@]1(NC(=O)Cc2cccs2)C(=O)N2C(C(=O)O)=C(COC(N)=O)CS[C@@H]21 [Cefoxitin, cefoxitin] showed an MIC (Mab ATCC 19977 strain; [7]) of 16 µg/mL (≈ 37.4 µM).
In the case of NCC[C@H](O)C(=O)N[C@@H]1C[C@H](N)[C@@H](O[C@H]2O[C@H](CN)[C@@H](O)[C@H](O)[C@H]2O)[C@H](O)[C@H]1O[C@H]1O[C@H](CO)[C@@H](O)[C@H](N)[C@H]1O [Amikacin, amikacin], the “Average unbound concentration at steady-state” value ([1]; amikacin doses between 20 and 30 mg/kg) is reported as 12 mg/L and the MIC (Mab ATCC 19977 strain; [7]) is reported as 16 µg/mL (≈ 27.3 µM).
With CC1(C)[C@H](C(=O)O)N2C(=O)C[C@H]2S1(=O)=O [Sulbactam, sulbactam] the “Bacterial killing (log10 reduction) in time-kill” value (Mab ATCC 19977) was “no bacterial killing”, the Ki (LDT2 [2]) was 0.0857 µM and the Ki (LDT1) was 643 µM. For the same compound, the Ki (PBP B) was 55.7 µM and the “Morphological change of Mab cells” value [6] was “did not induce noticeable morphological changes”.
